The target of test [1] is T1, Angiotensin-I converting enzyme (ACE) (Oryctolagus cuniculus, UniProt P12822).
T1 construct: purchased Sigma A-6778
T1 sequence (P12822 34-1310): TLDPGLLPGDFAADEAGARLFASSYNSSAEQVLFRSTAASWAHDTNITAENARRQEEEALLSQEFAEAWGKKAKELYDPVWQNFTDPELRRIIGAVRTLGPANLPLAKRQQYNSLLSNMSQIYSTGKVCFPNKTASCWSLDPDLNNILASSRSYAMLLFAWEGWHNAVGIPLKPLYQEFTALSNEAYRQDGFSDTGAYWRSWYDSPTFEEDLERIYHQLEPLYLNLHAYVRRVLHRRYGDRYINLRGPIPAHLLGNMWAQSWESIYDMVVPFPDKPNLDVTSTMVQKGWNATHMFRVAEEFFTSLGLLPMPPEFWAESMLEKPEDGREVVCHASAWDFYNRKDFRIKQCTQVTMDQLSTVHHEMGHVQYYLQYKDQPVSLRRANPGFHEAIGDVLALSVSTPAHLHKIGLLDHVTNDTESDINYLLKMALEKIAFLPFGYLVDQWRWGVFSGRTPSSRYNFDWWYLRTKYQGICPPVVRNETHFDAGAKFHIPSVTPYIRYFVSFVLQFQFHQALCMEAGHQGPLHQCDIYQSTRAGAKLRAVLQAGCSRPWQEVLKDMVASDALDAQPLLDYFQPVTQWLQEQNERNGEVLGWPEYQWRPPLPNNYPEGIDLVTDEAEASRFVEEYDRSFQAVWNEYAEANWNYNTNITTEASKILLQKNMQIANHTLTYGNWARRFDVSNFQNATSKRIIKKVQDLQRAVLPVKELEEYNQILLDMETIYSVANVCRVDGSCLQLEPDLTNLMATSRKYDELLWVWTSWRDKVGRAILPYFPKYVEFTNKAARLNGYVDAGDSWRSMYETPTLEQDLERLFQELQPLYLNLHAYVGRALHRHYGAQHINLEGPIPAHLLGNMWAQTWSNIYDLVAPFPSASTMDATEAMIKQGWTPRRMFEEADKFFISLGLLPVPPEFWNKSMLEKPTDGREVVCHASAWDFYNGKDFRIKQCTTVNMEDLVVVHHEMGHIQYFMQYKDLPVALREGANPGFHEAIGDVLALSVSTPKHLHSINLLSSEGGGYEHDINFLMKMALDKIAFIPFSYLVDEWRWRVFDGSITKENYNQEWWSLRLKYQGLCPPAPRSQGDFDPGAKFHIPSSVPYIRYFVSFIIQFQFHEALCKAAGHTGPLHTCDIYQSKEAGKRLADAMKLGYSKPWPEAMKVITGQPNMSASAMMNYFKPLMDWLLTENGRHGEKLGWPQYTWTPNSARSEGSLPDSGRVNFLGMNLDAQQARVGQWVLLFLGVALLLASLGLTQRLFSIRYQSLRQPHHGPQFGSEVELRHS
As to the kind of experiment: Cross reacting enzymes: ACE. Type of test: biochemical. The conditions noted are these: Sigma enzyme A-6778. As for the experimental part: For IC50 determination of ACE an enzyme produced by Sigma was used (Prod. No. A-6778). The assay procedure and calculation of activity described by the manufacturer was adapted to half of the described volumes.
The IC50-values were calculated using Graphit 4.0.15 (Erithacus Software, Ltd., UK).

The target of test [2] is T2, Acylamino acid-releasing enzyme (AARE) (Homo sapiens, UniProt P13798).
T2 sequence (P13798 1-732): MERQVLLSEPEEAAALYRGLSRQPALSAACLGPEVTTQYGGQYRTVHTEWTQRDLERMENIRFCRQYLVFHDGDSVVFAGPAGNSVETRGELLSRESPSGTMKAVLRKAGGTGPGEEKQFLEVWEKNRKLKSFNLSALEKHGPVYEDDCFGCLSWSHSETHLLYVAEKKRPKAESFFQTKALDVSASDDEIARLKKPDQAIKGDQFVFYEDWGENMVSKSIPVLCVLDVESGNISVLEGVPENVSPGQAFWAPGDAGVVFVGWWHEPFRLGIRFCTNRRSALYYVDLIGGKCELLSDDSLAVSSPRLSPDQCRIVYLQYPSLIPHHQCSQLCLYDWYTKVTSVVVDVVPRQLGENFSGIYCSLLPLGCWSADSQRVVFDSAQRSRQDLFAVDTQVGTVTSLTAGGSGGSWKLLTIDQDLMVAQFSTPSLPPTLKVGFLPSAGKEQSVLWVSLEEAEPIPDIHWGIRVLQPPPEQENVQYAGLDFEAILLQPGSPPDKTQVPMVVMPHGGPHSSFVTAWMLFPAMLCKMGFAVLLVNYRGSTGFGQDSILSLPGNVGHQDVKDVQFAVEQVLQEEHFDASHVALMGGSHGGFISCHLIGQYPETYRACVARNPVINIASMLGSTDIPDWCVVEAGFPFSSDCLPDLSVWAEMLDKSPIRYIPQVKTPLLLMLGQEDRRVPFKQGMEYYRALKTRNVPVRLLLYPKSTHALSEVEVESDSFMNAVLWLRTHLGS
Kind of test: Cross reacting enzymes: AARE. Type of test: biochemical. Conditions: substrate Acetyl-Met-AMC, pH 7.2. As for the experimental part: The assay mixture was pre-incubated at 30° C. for 15 min. After pre-incubation, 50 μl Acetyl-Met-AMC solution (0.54 mM) was added. Release of the AMC was measured at 30° C. using a NOVOstar fluorescence microplate reader (BMG) and excitation/emission wavelengths of 380/460 nm.
The IC50-values were calculated from the slopes of the progress curves using Graphit 4.0.15 (Erithacus Software, Ltd., UK).

As for `Br.CC(=O)OCC(=O)[C@@H]1CCCN1C(=O)[C@@H](NC(=O)[C@H](C)N)C(C)C` [H-Ala-Val-Pro-CH2O—CO—CH3*HBr, 2-[(Acetyloxy-methyl)carbonyl]-1-N-[(L)-Alanyl-(L)-Valinyl]-(2S)-pyrrolidine hydrobromide], the “ACE IC50” value in test [1] is “no inhibition”. In test [2], the “AARE IC50” value is on record as “no inhibition”.
In the case of `Br.CC(C)[C@H](NC(=O)[C@H](C)N)C(=O)N1CCC[C@H]1C(=O)COC(=O)c1ccccc1` [H-Ala-Val-Pro-CO—CH2O—CO—Ph*HBr, 2-[(Benzoyloxy-methyl)carbonyl]-1-N-[{(L)-Alanyl}-(L)-Valinyl]-(2S)-pyrrolidine hydrobromide], in test [1], the “ACE IC50” value is listed as “no inhibition”. Further, the “AARE IC50” value in test [2] is reported as “no inhibition”.
In the case of `Br.CC(=O)[C@@H]1CCCN1C(=O)[C@@H](NC(=O)[C@H](C)N)C(C)C` [H-Ala-Val-Pro-Me*HBr, 2-Methylcarbonyl-1-N-[(L)-Alanyl-(L)-Valinyl]-(2S)-pyrrolidine hydrobromide], the “ACE IC50” value in test [1] is “no inhibition”. Besides, the “AARE IC50” value in test [2] is “no inhibition”.

The values above are taken from patent US7608577B2, “Peptidyl ketones as inhibitors of DPIV” (OSI Pharmaceuticals, Inc., priority 2001, dated 2009).
